Counter-ions that a name gives are not always drawn.
Test: In vivo metabolism and excretion of [14C]COMPOUND I in male beagle dogs, single oral 3 mg/kg dose
Set-up: species or system dog
Conditions: 3 mg/kg oral; for Source: P, plasma, F, feces
Description: Dose preparation, animal dosing, and specimen collection were performed at Wyeth Research, Collegeville, Pa. The vehicle contained 2% (w/v) polysorbate 80, NF and 0.5% (w/v) methylcellulose (4000 cps) in water. [^14C]COMPOUND I trisuccinate salt (50.25 mg) and non-labeled COMPOUND I trisuccinate salt (331.9 mg) were suspended in 72 mL of the vehicle by grinding with a mortar and a pestle. The target [^14C]COMPOUND I concentration was approximately 3 mg/mL as free base and 48 μCi/mL with a target specific activity of 16 μCi/mg. Three pre- and post-dose aliquots (100 μL) were taken for the determination of radiochemical purity, drug and radioactivity concentrations and specific activity (see below).
Four male beagle dogs, weighing from 9.4 to 11.5 kg at the time of dosing, were from an in-house colony. Non-fasted dogs were given a single 3 mg/kg (approximately 48 μCi/kg) dose of [^14C]COMPOUND I at a volume of 1 mL/kg via intragastric gavage. Animals were provided Purina dog chow and water ad libitum, and were housed individually in metabolic cages.
Blood samples were collected from the jugular vein at 1, 4, 8, 24, 48, 72 and 120 hr after dose administration into tubes containing potassium EDTA as the anticoagulant and then placed on ice. Aliquots of 200 μL were removed and plasma was harvested immediately from the remaining blood by centrifugation at 4° C. Urine samples were collected into tubes on dry ice from 0-24 and 24-48 hr, and then at ambient temperature at 24 hr intervals for 7 days post-dose. Fecal samples were collected at 24 hr intervals for 7 days post-dose at room temperature. Cage rinses were collected daily by rinsing each cage with approximately 500 mL of 30% ethanol in water. The dose aliquots and biological specimens were stored at approximately −70° C. until analysis.
Triplicate aliquots of diluted dose (20 μL), dose fractions (10 μL) and plasma (50 μL), urine (200 μL) and cage wash (500 μL) from individual dogs were analyzed for radioactivity content. The samples were assayed in a Tri-Carb Model 3100TR liquid scintillation counter (Perkin Elmer) using 5 mL of Ultima Gold scintillation cocktail.
Fecal samples from individual dogs were weighed and homogenized in water at a volume-to-weight ratio of about 4:1 with a Silverson sealed-unit homogenizer at ambient temperature. Triplicate aliquots of whole blood (50 μL) and fecal homogenates (approximately 0.2 g) were placed into Combusto-cones with Combusto-pads and allowed to dry overnight. Samples were combusted with a model 307 Tri-Carb Sample Oxidizer, equipped with an Oximate-80 Robotic Automatic Sampler (Perkin Elmer). The liberated ^14CO2 was trapped with Carbo-Sorb® E carbon dioxide absorber, mixed with PermaFluor® E+liquid scintillation cocktail, and counted in a Tri-Carb Model 3100 TR/LL liquid scintillation counter.
Plasma samples were pooled by mixing equal volumes from four animals at each time point (1, 4, 8 and 24 hr). Aliquots of 2.0 mL of pooled plasma were mixed with 2.0 mL of acetonitrile, placed on ice for about 10 min, and then centrifuged at 4° C. The supernatant was transferred to a clean tube. The protein pellets were extracted two more times with 2.0 mL of acetonitrile. The supernatants from precipitation and extraction of each sample were pooled, mixed, and evaporated at 22° C. under nitrogen in a TurboVap LV evaporator (Caliper Life Sciences, Hopkinton, Mass.) to about 0.8 mL. The concentrated extract was centrifuged, the supernatant volume measured and the extraction efficiency was determined by analyzing duplicate 10 μL aliquots for radioactivity concentrations. For metabolite profiling, an aliquot of the supernatant (200 μL) was injected onto the HPLC column as described hereinbelow, and fractions were collected at 20 second intervals into 96-well Lumaplates (Perkin Elmer).

With `COc1cc(N2CCN(C3CCN(c4ccc(F)c5cccnc45)CC3)CC2)c2ncccc2c1` [COMPOUND I, 5-Fluoro-8-{4-[4-(6-methoxyquinolin-8-yl)piperazin-1-yl]piperidin-1-yl}quinoline] the Source was “P, F”, the “percent of total fecal radioactivity” value (pooled 0-24 hr fecal sample) was 1.2% and the “percent of total fecal radioactivity” value (pooled 24-48 hr fecal sample) was 6.7%. The “percent of total plasma radioactivity” value (pooled plasma, over 24 hr post-dose) was 71-78%.
With `Oc1cc(N2CCN(C3CCN(c4ccc(F)c5cccnc45)CC3)CC2)c2ncccc2c1` [Metabolite M21, 8-{4-[1-(5-fluoroquinolin-8-yl)piperidin-4-yl]piperazin-1-yl}quinolin-6-ol trihydrochloride] the Source was “P, F”, the “percent of total fecal radioactivity” value (pooled 0-24 hr fecal sample) was 79.3% and the “percent of total fecal radioactivity” value (pooled 24-48 hr fecal sample) was 60.9%.

Reference: patent publication US20080262228A1, “Metabolites of 5-fluoro-8- quinoline and methods of preparation and uses thereof” (Wyeth, priority 2006, published 2008)
